# Data as given in publication PMC5296751, “N,N Dimethylacetamide a drug excipient that acts as bromodomain ligand for osteoporosis treatment” (Scientific Reports, 2017).
# Experiments:
# BRD2 = BRD2 (Homo sapiens, UniProt P25440); test: AlphaScreen binding inhibition assay with recombinant human BRD2
# BRD4 = biological target: T1, BRD4 (Homo sapiens, UniProt O60885); test: X-ray crystal structure at […] Å (soaked crystals); IC50 from AlphaScreen; format: binding
# T1 construct: residues 42–168, BRD4-BD1 (N-terminal bromodomain)
# Chain of BRD2 (P25440 whole entry): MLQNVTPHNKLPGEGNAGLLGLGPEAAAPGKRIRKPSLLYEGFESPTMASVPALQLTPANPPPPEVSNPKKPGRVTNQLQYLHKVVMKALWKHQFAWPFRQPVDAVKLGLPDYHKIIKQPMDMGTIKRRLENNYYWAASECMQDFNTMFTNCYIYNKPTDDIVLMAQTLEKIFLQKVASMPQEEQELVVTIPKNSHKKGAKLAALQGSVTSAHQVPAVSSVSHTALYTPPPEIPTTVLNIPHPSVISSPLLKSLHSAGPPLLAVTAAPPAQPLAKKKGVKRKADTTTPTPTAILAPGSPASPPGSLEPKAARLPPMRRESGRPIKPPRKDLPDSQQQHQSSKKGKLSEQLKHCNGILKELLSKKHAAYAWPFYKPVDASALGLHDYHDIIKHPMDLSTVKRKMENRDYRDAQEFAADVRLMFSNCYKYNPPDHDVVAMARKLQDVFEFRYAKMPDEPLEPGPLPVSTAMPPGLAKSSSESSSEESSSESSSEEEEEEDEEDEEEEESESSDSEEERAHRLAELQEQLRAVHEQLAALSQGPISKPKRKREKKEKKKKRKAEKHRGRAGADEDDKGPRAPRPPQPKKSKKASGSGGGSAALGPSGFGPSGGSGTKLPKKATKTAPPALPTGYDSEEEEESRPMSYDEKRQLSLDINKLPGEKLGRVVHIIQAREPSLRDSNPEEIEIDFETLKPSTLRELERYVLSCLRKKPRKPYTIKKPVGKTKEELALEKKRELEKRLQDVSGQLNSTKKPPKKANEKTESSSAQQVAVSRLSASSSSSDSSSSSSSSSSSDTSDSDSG
compound,measurement,setting,value
"CC(=O)N(C)C [DMA, N,N-Dimethylacetamide]",IC50,BRD2,11 mM
same,IC50,BRD4,6 mM
